Our source for the IC50 values is US8518958B2, “Pyrido [2,3-D] pyrimidines and their use as kinase inhibitors” (Forma Therapeutics, Inc., priority 2006, dated 2013).

One assay relates to HT-29 tumor cells. The assay is described as follows: Anti-proliferative activity, SRB assay. The format is cell-based, human. Conditions: Homo sapiens, HT-29, 72 h, 72 hours exposure, read-out: CELLULAR IC50 HT-29. The method, then:
We observed the surprising finding that compounds of the invention were useful in inhibiting proliferation of HT-29 tumor cells (see Table 3).
3,000-15,000 cells/well were exposed to the test compounds at various concentrations appropriate to determine an IC50, for 72 hours, and cell proliferation was measured using the SRB assay according to Shekan et al (J Natl Cancer Inst (1990) 82, 1107-112) in order to estimate the IC50 values shown in Table 3. Briefly, cells were plated in 96 well dishes 24 hours prior to compound addition. The assay was terminated with the addition of cold TCA to a final concentration of 10% and the plates were incubated for one hour at 4° C. The plates were then washed 5 times with water and 100 μl of a Sulforhodamine B solution (4%) was added to each well. The plate was then incubated for 10 minutes at room temperature before removal of unbound dye by washing with 1% acetic acid. The bound dye was solubilized with 10 mM Trizma base and the absorbance read at OD570. Inhibitory activity of the compounds was calculated as % inhibition of cell proliferation compared to cells treated with the solvent (DMSO).

The next assay concerns the target B-Raf delta1-415 (Homo sapiens, UniProt P15056). The assay is described as follows: B-Raf kinase inhibition (MAPH filter plate, 33P-ATP, MEK1 substrate). Conditions: read-out: Biochemical IC50 B-Raf. From the text: We characterized the in vitro inhibitory activity against protein kinases of compounds of the present invention by determining their IC50 values (see Table 2).
Kinase: B-Raf delta1-415 (e.g., Upstate Cat. No. 14-530)
Reaction Temperature: room temperature
Assay Plate: 96 well U bottom plate (Greiner, 650161)
MultiScreen-PH Plate: 96 well MAPH Filter Plates (Millipore, MAPHNOB50)
Filter Washing Solution: 0.75% H3PO4
Szintilation Liquid: Supermix Liquid Szintillator (PerkinElmer, 1200-439)
Negative Control (C−): 100 mM EDTA, no Inhibitor
Positive Control (C+): no Inhibitor
Reaction Buffer: 20 mM Mops, pH 7.0 • 10 mM MgCl2 • 0.4 mM MnCl2 • 100 mM NaCl • 1 mM DTT • 0.01% NP40
Final Assay Concentrations:
Kinase: Kinase conc. yielding 50% substrate turnover as determined in titration experiment.
Adenosine 5′-[γ-^33P]triphosphate: 12.5 μCi/ml (Amersham Biosciences, BF1000)
Pipetting Sequence: • 1) Add 10 μl 4-fold concentrated substrate in 3-fold concentrated reaction buffer to each well of assay plate • 2) Add 10 μl 4-fold concentrated inhibitor in 4% DMSO in H2O to each well except to C− and C+ wells (starting point: final inhibitor concentration 10 μM; IC50 determination based on dilution series) • 3) Add 10 μl 4% DMSO in H2O to C− and C+ wells • 4) Add 10 μl 500 mM EDTA in H2O to C− wells • 5) Add 10 μl 50 μCi/ml adenosine 5′-[γ-^33P]triphosphate in H2O+4-fold cold ATP to each well • 6) Add 10 μl 4-fold concentrated kinase in reaction buffer to each well • 7) Incubate 1 hr at room temperature • 8) Add 10 μl 50 mM EDTA in H2O to each well except to C− wells • 9) Prepare MAPH plates by adding 200 μl 0.75% H3PO4 to each well • 10) Exhaust 0.75% H3PO4 using Millipore vacuum station • 11) Add 60 μl 0.75% H3PO4 to each well of MAPH filter plate • 12) Transfer 30 μl sample per well from assay plate to corresponding well of MAPH filter plate • 13) Incubate 30 min at room temperature • 14) Wash each well of MAPH filter plates 3× with 200 μl 0.75% H3PO4 using Millipore vacuum station • 15) Add 20 μl scintillation liquid to each well of MAPH filter plate • 16) Seal MAPH filter plate • 17) Store MAPH filter plate 30 min in darkness • 18) Quantify radioactivity using scintillation counter (MicroBeta, Perkin-Elmer)

B-Raf delta1-415, sequence (P15056 416-766): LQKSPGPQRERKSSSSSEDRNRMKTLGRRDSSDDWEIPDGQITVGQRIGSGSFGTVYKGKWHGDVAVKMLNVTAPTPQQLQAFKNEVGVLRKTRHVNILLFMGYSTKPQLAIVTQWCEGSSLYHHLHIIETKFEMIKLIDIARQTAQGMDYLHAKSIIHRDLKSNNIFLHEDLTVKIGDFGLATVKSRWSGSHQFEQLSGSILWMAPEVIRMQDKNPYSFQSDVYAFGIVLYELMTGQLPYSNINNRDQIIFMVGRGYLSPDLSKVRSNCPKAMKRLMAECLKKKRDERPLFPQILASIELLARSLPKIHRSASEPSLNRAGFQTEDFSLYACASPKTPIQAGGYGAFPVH

For the molecule `COn1c(=O)c(-c2c(Cl)cccc2Cl)cc2cnc(Nc3cc(C(=O)N(C)CCO)n(C)c3)nc21` [Compound 116, 6-(2,6-Dichlorophenyl)-2-(5-(N-(2-hydroxyethyl)-N-methyl-amino)carbonyl-1-methyl-pyrrol-3-yl)-amino-8-methoxy-pyrido[2,3-d]pyrimidin-7-one], the results for the IC50 in the assay with HT-29 tumor cells and at B-Raf delta1-415 were less than 1 µM and less than 0.1 µM, respectively.
The corresponding values for `COn1c(=O)c(-c2c(Cl)cccc2Cl)cc2cnc(Nc3cc(C(=O)NC[C@@H](O)CO)n(C)c3)nc21` [Compound 117, 6-(2,6-Dichlorophenyl)-2-(5-(2-(R)-2,3-dihydroxyethylamino)carbonyl-1-methyl-pyrrol-3-yl)-amino-8-methoxy-pyrido[2,3-d]pyrimidin-7-one] are less than 10 µM and less than 0.1 µM.
As to `COn1c(=O)c(-c2c(Cl)cccc2Cl)cc2cnc(Nc3cc(C(=O)NC[C@H](O)CO)n(C)c3)nc21` [Compound 118, 6-(2,6-Dichlorophenyl)-2-(5-(2-(S)-2,3-dihydroxyethylamino)carbonyl-1-methyl-pyrrol-3-yl)-amino-8-methoxy-pyrido[2,3-d]pyrimidin-7-one], the IC50 was less than 10 µM with HT-29 tumor cells and less than 0.1 µM at B-Raf delta1-415.
As for `COn1c(=O)c(-c2c(Cl)cccc2Cl)cc2cnc(Nc3cccc(NS(C)(=O)=O)c3)nc21` [Compound 119, 6-(2,6-Dichlorophenyl)-8-methoxy-2-(3-methylsulfonylaminophenyl)-amino-pyrido[2,3-d]pyrimidin-7-one], the IC50 is less than 1 µM with HT-29 tumor cells and less than 0.1 µM on B-Raf delta1-415.
On to `COn1c(=O)c(-c2c(Cl)cccc2Cl)cc2cnc(Nc3ccc(CNS(C)(=O)=O)cc3)nc21` [Compound 120, 6-(2,6-Dichlorophenyl)-8-methoxy-2-(4-methylsulfonylaminomethyl-phenyl)-amino-pyrido[2,3-d]pyrimidin-7-one], for which the IC50 with HT-29 tumor cells is less than 1 µM; on B-Raf delta1-415 it was less than 0.1 µM.
The corresponding values for `COCCOn1c(=O)c(-c2c(F)cccc2Cl)cc2cnc(Nc3ccc(N4CCOCC4)cc3)nc21` [Compound 121] are less than 1 µM and less than 0.1 µM.
Turning to `CCNS(=O)(=O)c1cccc(Nc2ncc3cc(-c4c(Cl)cccc4Cl)c(=O)n(OC)c3n2)c1` [Compound 122, 6-(2,6-Dichlorophenyl)-2-(3-ethylaminosulfonylphenyl)-amino-8-methoxy-pyrido[2,3-d]pyrimidin-7-one], the IC50 in the assay on HT-29 tumor cells was less than 1 µM; on B-Raf delta1-415 it was less than 0.5 µM.
For the molecule `CCN(CC)S(=O)(=O)c1cccc(Nc2ncc3cc(-c4c(Cl)cccc4Cl)c(=O)n(OC)c3n2)c1` [Compound 123, 6-(2,6-Dichlorophenyl)-2-(3-diethylaminosulfonylphenyl)-amino-8-methoxy-pyrido[2,3-d]pyrimidin-7-one], the IC50 is less than 10 µM in the assay on HT-29 tumor cells and more than 1 µM on B-Raf delta1-415.
For the molecule `COn1c(=O)c(-c2c(Cl)cccc2Cl)cc2cnc(Nc3ccc(Cn4cccn4)cc3)nc21` [Compound 124, 6-(2,6-dichlorophenyl)-8-methoxy-2-(4-(pyrazol-1-ylmethyl)phenyl)-amino-pyrido[2,3-d]pyrimidin-7-one], the half-inhibitory concentration (IC50) in the assay with HT-29 tumor cells was less than 1 µM; at B-Raf delta1-415, less than 0.5 µM.
The corresponding values for `CNS(=O)(=O)Cc1ccc(Nc2ncc3cc(-c4c(Cl)cccc4Cl)c(=O)n(OC)c3n2)cc1` [Compound 125, 6-(2,6-dichlorophenyl)-8-methoxy-2-(4-(methylaminosulfonylmethyl)phenyl)-amino-pyrido[2,3-d]pyrimidin-7-one] are less than 1 µM and less than 0.1 µM.
The corresponding values for `COn1c(=O)c(-c2c(Cl)cccc2Cl)cc2cnc(Nc3cccc(S(=O)(=O)NCCO)c3)nc21` [Compound 126, 6-(2,6-Dichlorophenyl)-2-(3-(2-hydroxyethyl)aminosulfonyl-phenyl)-amino-8-methoxy-pyrido[2,3-d]pyrimidin-7-one] are less than 1 µM and less than 0.1 µM.
